The source of these data is patent US11602534B2, “Pyrimidine derivative kinase inhibitors” (HEFEI INSTITUTES OF PHYSICAL SCIENCE, CHINESE ACADEMY OF …, priority 2017, dated 2023).

Assay [1] deals with Tel-FLT3-BaF3. The assay can be described thus: Proliferation of Tel-FLT3-BaF3 cells, CCK8 cell viability assay. The class given is cell-based. To be noted: Mus musculus, 72 hours, stably expressing FLT3 kinase. The procedure, abridged:
(§1)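 Human kinase-region sequences were PCR-amplified, fused behind N-terminal TEL in MSCV-Puro and stably introduced into mouse BaF3 by retrovirus. IL-3 was then removed to give kinase-dependent lines. Compound effects on these and on parental BaF3 are scored as GI50 (μM) via CCK8 viable-cell quantification.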
On the technique in general: Tetrazolium assays rely on reduction of a dye to a coloured formazan, in cell work by metabolically active cells.

Assay [2] deals with BaF3. Kind of assay: Proliferation of BaF3 cells, CCK8 cell viability assay. To be noted: Mus musculus, 72 hours. The class given is cell-based. The gist of the method:
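Parental murine BaF3 and IL-3-independent BaF3 transformants driven by TEL–cKIT, TEL–PDGFRα or TEL–PDGFRβ, with human kinase domains stably transduced by retrovirus. CCK8 dehydrogenase read-out gives GI50 (μM).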

For assay [3], the system named is Tel-cKit-BaF3. The assay can be described thus: Proliferation of Tel-cKit-BaF3 cells, CCK8 cell viability assay. Particulars: Mus musculus; 72 hours, CCK8; stably expressing cKIT kinase. The assay is classed as cell-based, mouse. The procedure, abridged:
(§2)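 Growth inhibition is expressed as GI50 in μM, with living-cell number estimated by reductive dehydrogenase activity in a CCK8 assay. The engineered BaF3 lines express TEL-fused human cKIT, PDGFRα or PDGFRβ and proliferate without IL-3 only through that kinase.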

In assay [4] the test system is TEL-VEGFR2-BaF3. Kind of assay: Proliferation of TEL-VEGFR2-BaF3 cells, CCK8 cell viability assay. The assay is classed as cell-based. Particulars: Mus musculus, 72 hours, stably expressing VEGFR2 kinase. The gist of the method:
as §1

Assay [5] concerns FLT3-ITD-BaF3. Kind of assay: Proliferation of FLT3-ITD-BaF3 cells, CCK8 cell viability assay. Particulars: Mus musculus, 72 hours, stably expressing FLT3/ITD. The class given is cell-based. The procedure, abridged: as §1
Assay [6] relates to Tel-cKit/T670I-BaF3. Kind of assay: Proliferation of Tel-cKit/T670I-BaF3 cells, CCK8 cell viability assay. To be noted: Mus musculus, 72 hours, stably expressing cKIT/T670I. The class given is cell-based. The gist of the method:
as §2

Assay [7] deals with Tel-RET-BaF3. Kind of assay: Proliferation of Tel-RET-BaF3 cells, CCK8 cell viability assay. The assay is classed as cell-based. Particulars: Mus musculus, 72 hours, stably expressing RET kinase.
For assay [8], the system named is TEL-PDGFRβ-BaF3. The assay can be described thus: Proliferation of TEL-PDGFRβ-BaF3 cells, CCK8 cell viability assay. The assay is classed as cell-based. Particulars: Mus musculus, 72 hours, stably expressing PDGFRβ kinase. The gist of the method: as §2
The subject of assay [9] is P210/T315I-BaF3. The assay can be described thus: Proliferation of P210/T315I-BaF3 cells, CCK8 cell viability assay. The assay is classed as cell-based. Particulars: Mus musculus, 72 hours, stably expressing BCR-ABL/T315I. The gist of the method: as §1
Assay [10] relates to TEL-PDGFRα-BaF3. The assay can be described thus: Proliferation of TEL-PDGFRα-BaF3 cells, CCK8 cell viability assay. The class given is cell-based. To be noted: Mus musculus, 72 hours, stably expressing PDGFRα kinase. The procedure, abridged: as §2
In assay [11] the test system is P210-BaF3. Kind of assay: Proliferation of P210-BaF3 cells, CCK8 cell viability assay. The class given is cell-based. To be noted: Mus musculus, 72 hours, stably expressing BCR-ABL mutant activated kinase. The gist of the method:
as §1

Structures can show the parent of a compound that is named as a salt.

With `CC(=O)Nc1cc(Oc2ccc(NC(=O)Cc3ccccc3Cl)cc2)ncn1` [Example 26, N-[4-(6-acetylamino-pyrimidin-4-yloxy)-phenyl]-2-(2-chloro-phenyl)-acetamide], the GI50 (as a rule, the concentration giving 50% growth inhibition) was 436 nM in assay [1]; > 10000 nM in assay [2]; 8680 nM in [3]; 1240 nM in assay [4]; 77 nM in assay [5]; > 10000 nM in assay [6]. Further, the GI50 in assay [7] is > 10000 nM; in assay [8], 180 nM; in [9], > 10000 nM; in assay [10], 74 nM; in assay [11], > 10000 nM.

Regarding `CC(=O)Nc1cc(Oc2ccc(NC(=O)Cc3ccccc3Br)cc2)ncn1` [Example 17, N-[4-(6-acetylamino-pyrimidin-4-yloxy)-phenyl]-2-(2-bromo-phenyl)-acetamide], the concentration for 50% growth inhibition (GI50) in assay [1] was 744 nM; in assay [2], > 10000 nM; in [3] it was > 10000 nM; in [4], 553 nM; in [5], 129 nM; in assay [6], > 10000 nM. The GI50 in assay [7] is 229 nM; in assay [8] it was 105 nM; in assay [9], > 10000 nM; in assay [10] it was 13 nM; in assay [11], > 10000 nM.

For `CC(=O)Nc1cc(Oc2ccc(NC(=O)Cc3cccc(F)c3F)cc2)ncn1` [Example 16, N-[4-(6-acetylamino-pyrimidin-4-yloxy)-phenyl]-2-(2,3-difluoro-phenyl)-acetamide], the GI50 in [1] is 818 nM; in assay [2], > 10000 nM; in assay [3], > 10000 nM; in assay [4], 853 nM; in assay [5] it was 247 nM; in assay [6], > 10000 nM. The 50% growth inhibitory concentration (GI50) in [7] was 247 nM; in assay [8], 109 nM; in assay [9], > 10000 nM; in [10], 12 nM; in assay [11], > 10000 nM.

Turning to `COc1cc(CC(=O)Nc2ccc(Oc3cc(NC(C)=O)ncn3)cc2)ccc1O` [Example 11, N-[4-(6-acetylamino-pyrimidin-4-yloxy)-phenyl]-2-(4-hydroxy-3-methoxy-phenyl)-acetamide], the GI50 was 1100 nM in [1]; > 10000 nM in assay [2]; > 10000 nM in assay [3]; 1520 nM in [4]; 346 nM in assay [5]; > 10000 nM in assay [6]. For the same molecule, the GI50 in assay [7] is > 10000 nM; in [8], 271 nM; in assay [9], > 10000 nM; in assay [10], 227 nM; in [11], > 10000 nM.

In the case of `COc1ccccc1CC(=O)Nc1ccc(Oc2cc(NC(C)=O)ncn2)cc1` [Example 24, N-[4-(6-acetylamino-pyrimidin-4-yloxy)-phenyl]-2-(2-methoxy-phenyl)-acetamide], the 50% growth inhibitory concentration (GI50) was 1760 nM in [1]; > 10000 nM in assay [2]; > 10000 nM in assay [3]; 3100 nM in assay [4]; 331 nM in assay [5]; > 10000 nM in assay [6]. Besides, the concentration for 50% growth inhibition (GI50) is > 10000 nM in assay [7]; 356 nM in assay [8]; > 10000 nM in [9]; 77 nM in assay [10]; > 10000 nM in assay [11].

On to `CC(=O)Nc1cc(Oc2ccc(NC(=O)Cc3cccc(Br)c3)cc2)ncn1` [Example 13, N-[4-(6-acetylamino-pyrimidin-4-yloxy)-phenyl]-2-(3-bromo-phenyl)-acetamide], for which the 50% growth inhibitory concentration (GI50) in [1] was 616 nM; in assay [2], > 10000 nM; in [3] it was 6890 nM; in assay [4], 566 nM; in [5], 99 nM; in assay [6] it was > 10000 nM. The GI50 in assay [7] is > 10000 nM; in [8], 33 nM; in [9], > 10000 nM; in assay [10], 4 nM; in assay [11] it was > 10000 nM.

For `CC(=O)Nc1cc(Oc2ccc(NC(=O)Cc3cc(F)cc(F)c3)cc2)ncn1` [Example 173, N-[4-(6-acetylamino-pyrimidin-4-yloxy)-phenyl]-2-(3,5-difluoro-phenyl)-acetamide], the concentration for 50% growth inhibition (GI50) in assay [1] is 510 nM; in [2] it was > 10000 nM; in [3] it was 3600 nM; in assay [4] it was 1400 nM; in assay [5], 92 nM; in assay [6], > 10000 nM. Moreover, the GI50 is > 10000 nM in assay [7]; 39 nM in assay [8]; > 10000 nM in assay [9]; 14 nM in assay [10]; > 10000 nM in [11].

On to `Cc1ccc(NC(=O)NC2CCC(Oc3cc(NCCO)ncn3)CC2)cc1C(F)(F)F` (centres unmarked) [Example 40, 1-{4-[6-(2-hydroxy-ethylamino)-pyrimidin-4-yloxy]-cyclohexyl}-3-(4-methyl-3-trifluoromethyl-phenyl)-urea], for which the concentration for 50% growth inhibition (GI50) in assay [1] came out at 580 nM; in assay [2] it was 5060 nM; in [3], 5190 nM; in assay [4], 5090 nM; in assay [5], 168 nM; in [6] it was 2400 nM. Besides, the GI50 in assay [7] worked out at 4180 nM; in assay [8], 330 nM; in assay [9] it was 3930 nM; in [10], 21 nM; in assay [11], 5360 nM.

As to `CC(=O)Nc1cc(Oc2ccc(NC(=O)Cc3cccc([N+](=O)[O-])c3C)cc2)ncn1` [Example 9, N-[4-(6-acetylamino-pyrimidin-4-yloxy)-phenyl]-2-(2-methyl-3-nitro-phenyl)-acetamide], the 50% growth inhibitory concentration (GI50) in assay [1] is 12 nM; in assay [2], > 10000 nM; in assay [3], 584 nM; in [4] it was 304 nM; in [5] it was 2 nM; in assay [6], 5630 nM. Further, the GI50 in assay [7] was > 10000 nM; in assay [8], 10 nM; in assay [9], > 10000 nM; in assay [10], 4 nM; in assay [11] it was > 10000 nM.

For `Cc1ccc(NC(=O)NC2CCC(Oc3cc(NCCNC(=O)OC(C)(C)C)ncn3)CC2)cc1C(F)(F)F` (centres unmarked) [Example 124, [2-(6-{4-[3-(4-methyl-3-trifluoromethyl-phenyl)-ureido]-cyclohexyloxy}-pyrimidin-4-ylamino)-ethyl]-aminotert-butyl Formate], the GI50 was 694 nM in [1]; 1170 nM in assay [2]; 2560 nM in assay [3]; 890 nM in [4]; 149 nM in [5]; 2270 nM in [6]. For the same molecule, the GI50 was 1920 nM in assay [7]; 180 nM in assay [8]; 1540 nM in assay [9]; 150 nM in assay [10]; 2800 nM in [11].

As for `COCCNc1cc(OC2CCC(NC(=O)Nc3ccc(C)c(C(F)(F)F)c3)CC2)ncn1` (centres unmarked) [Example 41, 1-{4-[6-(2-methoxy-ethylamino)-pyrimidin-4-yloxy]-cyclohexyl}-3-(4-methyl-3-trifluoromethyl-phenyl)-urea], the concentration for 50% growth inhibition (GI50) in [1] is 263 nM; in assay [2] it was 7800 nM; in assay [3], 5120 nM; in [4] it was 2900 nM; in assay [5], 109 nM; in assay [6], 707 nM. The GI50 worked out at 3180 nM in [7]; 233 nM in assay [8]; 4690 nM in [9]; 59 nM in [10]; 4430 nM in [11].

On to `Cc1ccc(NC(=O)N[C@H]2CC[C@H](Oc3cc(NCCN)ncn3)CC2)cc1C(F)(F)F` [Example 46, 1-((1R,4R)-4-((6-((2-aminoethyl)amino)pyrimidin-4-yl)oxy)cyclohexyl)-3-(4-methyl-3-(trifluoromethyl)phenyl)urea], for which the GI50 in assay [1] turned out to be 228 nM; in assay [2] it was 7880 nM; in [3], 5100 nM; in assay [4], 3030 nM; in assay [5], 87 nM; in assay [6], 765 nM. Further, the GI50 in assay [7] is 4030 nM; in [8], 248 nM; in [9] it was 9170 nM; in assay [10] it was 24 nM; in assay [11], > 10000 nM.

Regarding `COCCNc1cc(O[C@H]2CC[C@H](NC(=O)Nc3ccc(C)c(C(F)(F)F)c3)CC2)ncn1` [Example 43, 1-((1R,4R)-4-((6-((2-methoxyethyl)amino)pyrimidin-4-yl)oxy)cyclohexyl)-3-(4-methyl-3-(trifluoromethyl)phenyl)urea], the concentration for 50% growth inhibition (GI50) in assay [1] was 305 nM; in [2], > 10000 nM; in [3], 5300 nM; in [4], 2600 nM; in assay [5], 199 nM; in assay [6], 1120 nM. Besides, the GI50 in assay [7] was found to be 3400 nM; in assay [8] it was 252 nM; in assay [9] it was 5210 nM; in assay [10], 23 nM; in assay [11] it was 6960 nM.
